Experiments:
Format in all cases: in vivo
[1] = system: pigweed (Amaranthus retroflexus); assay: Test A preemergence; details: Amaranthus retroflexus, pre-emergence, 240 h, Preemergence
[2] = system: barnyardgrass (Echinochloa crus-galli); assay: Test A preemergence; details: Echinochloa crus-galli, pre-emergence, 240 h, Preemergence
Procedure, shortened: (§1)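 Seeded soil received test chemicals as a preemergence directed spray, and seedlings at one to two leaves, 2–10 cm tall, received them postemergence, in a non-phytotoxic, surfactant-containing solvent mixture. Pots were held in a greenhouse for approximately 10 d, then rated for injury from 0, no effect, to 100, complete control.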

[3] = system: ragweed (common ragweed, Ambrosia elatior); assay: Test A preemergence; details: Ambrosia artemisiifolia, pre-emergence, 240 h, Preemergence
Procedure, shortened: as §1

[4] = system: ryegrass, Italian (Italian ryegrass, Lolium multiflorum); assay: Test A preemergence; details: Lolium multiflorum, pre-emergence, 240 h, Preemergence
Procedure, shortened: as §1

[5] = system: giant foxtail (Setaria faberii); assay: Test A preemergence; details: Setaria faberi, pre-emergence, 240 h, Preemergence
Procedure, shortened: as §1

[6] = system: Kochia (Kochia scoparia); assay: Test A preemergence; details: Bassia scoparia, pre-emergence, 240 h, Preemergence
Procedure, shortened: as §1

[7] = system: blackgrass (Alopecurus myosuroides); assay: Test A postemergence; details: Alopecurus myosuroides, post-emergence, 240 h, Postemergence
Procedure, shortened: as §1

[8] = system: pigweed (Amaranthus retroflexus); assay: Test A postemergence; details: Amaranthus retroflexus, post-emergence, 240 h, Postemergence
Procedure, shortened: as §1

[9] = system: barnyardgrass (Echinochloa crus-galli); assay: Test A postemergence; details: Echinochloa crus-galli, post-emergence, 240 h, Postemergence
Procedure, shortened: as §1

[10] = system: Galium (catchweed bedstraw, Galium aparine); assay: Test A postemergence; details: Galium, post-emergence, 240 h, Postemergence
Procedure, shortened: as §1

[11] = system: ragweed (common ragweed, Ambrosia elatior); assay: Test A postemergence; details: Ambrosia artemisiifolia, post-emergence, 240 h, Postemergence
Procedure, shortened: as §1

[12] = system: ryegrass, Italian (Italian ryegrass, Lolium multiflorum); assay: Test A postemergence; details: Lolium multiflorum, post-emergence, 240 h, Postemergence
Procedure, shortened: as §1

[13] = system: giant foxtail (Setaria faberii); assay: Test A postemergence; details: Setaria faberi, post-emergence, 240 h, Postemergence
Procedure, shortened: as §1

[14] = system: corn (Zea mays); assay: Test A postemergence; details: Zea mays, post-emergence, 240 h, Postemergence
Procedure, shortened: as §1

[15] = system: Kochia (Kochia scoparia); assay: Test A postemergence; details: Bassia scoparia, post-emergence, 240 h, Postemergence
Procedure, shortened: as §1

[16] = system: wheat (Triticum aestivum); assay: Test A postemergence; details: Triticum aestivum, post-emergence, 240 h, Postemergence
Procedure, shortened: as §1

[17] = system: rice (Oryra sativa); assay: Test B flooded paddy test; details: Oryza sativa, 360 h, Flood, 250 g ai/ha; visually evaluated after 13 to 15 d; read-out: Plant response rating, Rice (0 to 100 scale where 0 is no effect and 100 is complete control)
Procedure, shortened: (§2)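 Greenhouse paddy pots with 2-leaf stage plants received compound by direct addition to floodwater 3 cm deep, kept at that level. Scored visually at 13–15 d versus controls (0 no effect; 100 complete control).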

[18] = system: sedge, umbrella (small-flower umbrella sedge, Cyperus difformis); assay: Test B flooded paddy test; details: Cyperus difformis, 360 h, Flood, 250 g ai/ha; visually evaluated after 13 to 15 d; read-out: Plant response rating, Sedge, Umbrella (0 to 100 scale where 0 is no effect and 100 is complete control)
Procedure, shortened: as §2

[19] = system: barnyardgrass (Echinochloa crus-galli); assay: Test B flooded paddy test; details: Echinochloa crus-galli, 360 h, Flood, 250 g ai/ha; visually evaluated after 13 to 15 d; read-out: Plant response rating, Barnyardgrass (0 to 100 scale where 0 is no effect and 100 is complete control)
Procedure, shortened: as §2

[20] = system: ducksalad (Heteranthera limosa); assay: Test B flooded paddy test; details: Heteranthera limosa, 360 h, Flood, 250 g ai/ha; visually evaluated after 13 to 15 d; read-out: Plant response rating, Ducksalad (0 to 100 scale where 0 is no effect and 100 is complete control)
Procedure, shortened: as §2

In the case of CN1C[C@H](c2ccc(C(F)(F)F)cc2)[C@@H](C(=O)Nc2cccnc2F)C1=O [Compound 1396], the pest or weed control at 31 g/ha ([1]; 31 g ai/ha, 0 to 100 scale where 0 is no effect and 100 is complete control, read-out: Pigweed plant response rating) is reported as 70%, the pest or weed control at 125 g/ha ([1]; 125 g ai/ha, 0 to 100 scale (0 no effect, 100 complete control), read-out: Plant response rating, Pigweed) is reported as 90% and the pest or weed control at 31 g/ha ([2]; 31 g ai/ha, 0 to 100 scale where 0 is no effect and 100 is complete control, read-out: Barnyardgrass plant response rating) is reported as 90%. It also gave a pest or weed control at 125 g/ha ([2]; 125 g ai/ha, 0 to 100 scale (0 no effect, 100 complete control), read-out: Plant response rating, Barnyardgrass) of 90%, a pest or weed control at 31 g/ha ([3]; 31 g ai/ha, 0 to 100 scale where 0 is no effect and 100 is complete control, read-out: Ragweed plant response rating) of 30% and a pest or weed control at 125 g/ha ([3]; 125 g ai/ha, 0 to 100 scale (0 no effect, 100 complete control), read-out: Plant response rating, Ragweed) of 60%. It also gave a pest or weed control at 31 g/ha ([4]; 31 g ai/ha, 0 to 100 scale where 0 is no effect and 100 is complete control, read-out: Ryegrass, Italian plant response rating) of 0%, a pest or weed control at 125 g/ha ([4]; 125 g ai/ha, 0 to 100 scale (0 no effect, 100 complete control), read-out: Plant response rating, Ryegrass, Italian) of 40% and a pest or weed control at 31 g/ha ([5]; 31 g ai/ha, 0 to 100 scale where 0 is no effect and 100 is complete control, read-out: Foxtail, Giant plant response rating) of 90%. It also gave a pest or weed control at 125 g/ha ([5]; 125 g ai/ha, 0 to 100 scale (0 no effect, 100 complete control), read-out: Plant response rating, Foxtail, Giant) of 90%, a pest or weed control at 31 g/ha ([6]; 31 g ai/ha, 0 to 100 scale where 0 is no effect and 100 is complete control, read-out: Kochia plant response rating) of 30% and a pest or weed control at 125 g/ha ([6]; 125 g ai/ha, 0 to 100 scale (0 no effect, 100 complete control), read-out: Plant response rating, Kochia) of 70%. It also gave a pest or weed control at 31 g/ha ([7]; 31 g ai/ha, 0 is no effect, 100 is complete control, read-out: Blackgrass plant response rating (0 to 100 scale)) of 0%, a pest or weed control at 125 g/ha ([7]; 125 g ai/ha, visual injury after approx. 10 d, 0 to 100 scale, 0 no effect, 100 complete control, read-out: Plant response rating, Blackgrass) of 50% and a pest or weed control at 31 g/ha ([8]; 31 g ai/ha, 0 is no effect, 100 is complete control, read-out: Pigweed plant response rating (0 to 100 scale)) of 30%. For the same compound, the pest or weed control at 125 g/ha ([8]; 125 g ai/ha, visual injury after approx. 10 d, 0 to 100 scale, 0 no effect, 100 complete control, read-out: Plant response rating, Pigweed) was 70%, the pest or weed control at 31 g/ha ([9]; 31 g ai/ha, 0 is no effect, 100 is complete control, read-out: Barnyardgrass plant response rating (0 to 100 scale)) was 70% and the pest or weed control at 125 g/ha ([9]; 125 g ai/ha, visual injury after approx. 10 d, 0 to 100 scale, 0 no effect, 100 complete control, read-out: Plant response rating, Barnyardgrass) was 80%. It also gave a pest or weed control at 31 g/ha ([10]; 31 g ai/ha, 0 is no effect, 100 is complete control, read-out: Galium plant response rating (0 to 100 scale)) of 60%, a pest or weed control at 125 g/ha ([10]; 125 g ai/ha, visual injury after approx. 10 d, 0 to 100 scale, 0 no effect, 100 complete control, read-out: Plant response rating, Galium) of 70% and a pest or weed control at 31 g/ha ([11]; 31 g ai/ha, 0 is no effect, 100 is complete control, read-out: Ragweed plant response rating (0 to 100 scale)) of 0%. It also gave a pest or weed control at 125 g/ha ([11]; 125 g ai/ha, visual injury after approx. 10 d, 0 to 100 scale, 0 no effect, 100 complete control, read-out: Plant response rating, Ragweed) of 50%, a pest or weed control at 31 g/ha ([12]; 31 g ai/ha, 0 is no effect, 100 is complete control, read-out: Ryegrass, Italian plant response rating (0 to 100 scale)) of 20% and a pest or weed control at 125 g/ha ([12]; 125 g ai/ha, visual injury after approx. 10 d, 0 to 100 scale, 0 no effect, 100 complete control, read-out: Plant response rating, Ryegrass, Italian) of 40%. It also gave a pest or weed control at 31 g/ha ([13]; 31 g ai/ha, 0 is no effect, 100 is complete control, read-out: Foxtail, Giant plant response rating (0 to 100 scale)) of 80%, a pest or weed control at 125 g/ha ([13]; 125 g ai/ha, visual injury after approx. 10 d, 0 to 100 scale, 0 no effect, 100 complete control, read-out: Plant response rating, Foxtail, Giant) of 80% and a plant injury at 31 g/ha ([14]; 31 g ai/ha, 0 is no effect, 100 is complete control, read-out: Corn plant response rating (0 to 100 scale)) of 20%. For the same compound, the Corn plant response rating (crop injury, 0 = no effect, 100 = complete kill) at 125 g/ha ([14]; 125 g ai/ha, visual injury after approx. 10 d, 0 to 100 scale, 0 no effect, 100 complete control) was 60%, the pest or weed control at 31 g/ha ([15]; 31 g ai/ha, 0 is no effect, 100 is complete control, read-out: Kochia plant response rating (0 to 100 scale)) was 60% and the pest or weed control at 125 g/ha ([15]; 125 g ai/ha, visual injury after approx. 10 d, 0 to 100 scale, 0 no effect, 100 complete control, read-out: Plant response rating, Kochia) was 70%. The plant injury at 31 g/ha ([16]; 31 g ai/ha, 0 is no effect, 100 is complete control, read-out: Wheat plant response rating (0 to 100 scale)) was 0%, the plant injury at 125 g/ha ([16]; 125 g ai/ha, visual injury after approx. 10 d, 0 to 100 scale, 0 no effect, 100 complete control, read-out: Plant response rating, Wheat) was 70% and the pest or weed control at 250 g/ha [17] was 25%. For the same compound, the pest or weed control at 250 g/ha [18] was 0%, the pest or weed control at 250 g/ha [19] was 80% and the pest or weed control at 250 g/ha [20] was 100%.

Source: US12077503B2, “Substituted cyclic amides and their use as herbicides” (FMC CORPORATION, priority 2015, dated 2024)
